In this assay the target is Nrf2-Keap1 complex (Homo sapiens, UniProt Q14145). In words: cell-based. It counts as cell-based. To be noted: for activation at 16 µM / activation at 32 µM: 3 h; for activation at 16 µM: read-out: Activation 100 nL; for activation at 32 µM: read-out: Activation 200 nL.
Setting [1] is: Table 2, 100 nL compound, screen run at 16 and 32 μM, 3 hr.
The mark [2] stands for this setting: Table 2, 200 nL compound, screen run at 16 and 32 μM, 3 hr.
Setting [3] is: Table 1A, 100 nL compound, screen run at 16 and 32 μM, 3 hr.
[4] abbreviates: Table 1A, 200 nL compound, screen run at 16 and 32 μM, 3 hr.

We go through 34 compounds from US9200046B2, “Reporter system for high throughput screening of compounds and uses thereof” (priority 2011, dated 2015).

Where two headings read alike, the source gives them in different places.

Sequence of Nrf2-Keap1 complex (Q14145 whole entry, one chain of several): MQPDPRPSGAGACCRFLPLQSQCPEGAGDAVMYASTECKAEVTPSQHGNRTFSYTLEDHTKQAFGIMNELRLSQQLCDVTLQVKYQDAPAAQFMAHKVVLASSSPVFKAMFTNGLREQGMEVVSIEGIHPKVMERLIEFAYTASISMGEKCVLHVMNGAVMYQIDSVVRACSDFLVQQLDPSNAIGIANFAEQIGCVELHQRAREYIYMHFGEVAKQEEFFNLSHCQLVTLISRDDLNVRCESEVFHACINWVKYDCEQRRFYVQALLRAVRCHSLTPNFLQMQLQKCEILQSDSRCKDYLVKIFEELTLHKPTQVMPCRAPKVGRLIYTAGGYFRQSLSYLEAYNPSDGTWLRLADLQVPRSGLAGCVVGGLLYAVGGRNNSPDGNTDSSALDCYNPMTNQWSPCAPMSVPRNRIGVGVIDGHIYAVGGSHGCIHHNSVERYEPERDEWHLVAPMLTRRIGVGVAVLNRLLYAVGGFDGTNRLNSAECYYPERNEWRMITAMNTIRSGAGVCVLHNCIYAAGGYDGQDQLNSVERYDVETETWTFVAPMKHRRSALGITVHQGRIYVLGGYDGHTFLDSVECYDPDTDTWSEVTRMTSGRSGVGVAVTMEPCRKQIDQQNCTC

As to `COc1ccc(-c2oc3ccccc3c(=O)c2O)cc1OC` [3-HYDROXY-3′,4′-DIMETHOXYFLAVONE], the activation at 16 µM was found to be 85% and the activation at 32 µM is -6%. Further, under setting [1], the “100 nL (luminescence)” value is 1504. Moreover, the “200 nL (luminescence)” value under setting [2] worked out at 316. Moreover, the “fold less effective than quercetin and fisetin” value (flavone SAR) amounted to 2.5 fold.

On to `CCC(C)C(=O)OC1[C@@H]2CC3=C4CC(=O)O[C@@H](c5ccoc5)[C@]4(C)CCC3[C@@](C)(C2=O)[C@@H](CC(=O)OC)C1(C)C` (some centres unmarked) [KHAYASIN], for which the activation at 16 µM stood at 90% and the activation at 32 µM was 105%. Also, the “100 nL (luminescence)” value under setting [1] came out at 1736. Besides, the “200 nL (luminescence)” value under setting [2] was found to be 1928.

For the compound `CC1(C)C2CC(=O)O[C@@]3(C)C4=CC(=O)O[C@@H](c5ccoc5)[C@]4(C)CCC3[C@@]2(C)C=C[C@H]1O` (some centres unmarked) [DEOXYANDIROBINLACTONE], the activation at 16 µM is 40% and the activation at 32 µM worked out at 52%. Moreover, the “100 nL (luminescence)” value under setting [1] was 964. The “200 nL (luminescence)” value under setting [2] was determined as 1124.

In the case of `CC(=O)Oc1ccc(Cl)c2cccnc12` [CHLOROACETOXYQUINOLINE], the “Neh2-luc reporter activation” value was 60%, the activation at 16 µM worked out at 60% and the activation at 32 µM amounted to 37%.

On to `O=C1C=CC(=O)c2c(O)cccc21` [JUGLONE], for which the activation at 16 µM is 58% and the activation at 32 µM came to 95%.

Consider `COC(=O)Nc1nc2cc(C(=O)c3ccccc3)ccc2[nH]1` [MEBENDAZOLE, reference compound], for which the activation at 16 µM is 74% and the activation at 32 µM stood at 216%. Besides, the “100 nL (luminescence)” value under setting [3] was 1872. Also, under setting [4], the “200 nL (luminescence)” value is 3056.

Consider `O=c1c(-c2ccc(O)cc2)coc2cc(O)cc(O)c12` [GENISTEIN], for which the activation at 16 µM was 106% and the activation at 32 µM worked out at 93%. Besides, the “100 nL (luminescence)” value under setting [1] came out at 1980. Moreover, the “200 nL (luminescence)” value under setting [2] is 1748.

Regarding `CC(=O)OC1CC[C@@]2(C)C(CC[C@H]3[C@@H]4CC=C(C(C)=O)[C@@]4(C)C(=O)C[C@@H]32)C1` (some centres unmarked) [3-ACETOXYPREGN-16-EN-12,20-DIONE], the activation at 16 µM stood at 214% and the activation at 32 µM came to 30%. The “100 nL (luminescence)” value under setting [1] is given as 2236. Further, under setting [2], the “200 nL (luminescence)” value turned out to be 1040.

In the case of `O=C1CC(c2ccc(O)cc2)Oc2ccccc21` (centres unmarked) [4′-HYDROXYFLAVANONE], the activation at 16 µM amounted to 158% and the activation at 32 µM was found to be 75%. In addition, the “100 nL (luminescence)” value under setting [1] is recorded as 1752. Further, the “200 nL (luminescence)” value under setting [2] is 2088.

Consider `COc1ccc(/C=C/C(=O)c2ccc(O)cc2O)cc1OC` [2′,4′-DIHYDROXY-3,4-DIMETHOXYCHALCONE], for which the activation at 16 µM came to 321% and the activation at 32 µM was found to be 185%. In addition, the “100 nL (luminescence)” value under setting [1] is 5876. The “200 nL (luminescence)” value under setting [2] came to 3964.

`CN1CCN(CC/C=C2/c3ccccc3Sc3ccc(S(=O)(=O)N(C)C)cc32)CC1` [THIOTHIXENE, reference compound]: the activation at 16 µM was found to be 55% and the activation at 32 µM is -26%. The “100 nL (luminescence)” value under setting [1] is 1500. Also, the “200 nL (luminescence)” value under setting [2] turned out to be 68.

As for `CC1CCc2cc(F)cc3c(=O)c(C(=O)O)cn1c23` (centres unmarked) [FLUMEQUINE, reference compound], the “100 nL (luminescence)” value is 1156, the “200 nL (luminescence)” value worked out at 368, the activation at 16 µM was 38% and the activation at 32 µM is -2%.

In the case of `C[C@@](Cc1ccc(O)c(O)c1)(NN)C(=O)O` [CARBIDOPA, reference compound], the activation at 16 µM turned out to be 217% and the activation at 32 µM is 67%. Moreover, under setting [1], the “100 nL (luminescence)” value is reported as 2262. Besides, under setting [2], the “200 nL (luminescence)” value is 1900.

In the case of `O=C(/C=C/c1ccc(O)cc1)c1ccc(O)cc1O` [ISOLIQUIRITIGENIN], the “100 nL (luminescence)” value is listed as 4452, the “200 nL (luminescence)” value amounted to 2364, the activation at 16 µM came out at 268% and the activation at 32 µM came to 134%.

With `CCC(C)C(=O)c1c(O)c(C)c2oc3c(C)c(O)c(C(=O)C(C)CC)c(O)c3c2c1O` (centres unmarked) [RHODOMYRTOXINB], the activation at 16 µM stood at 56% and the activation at 32 µM came to 36%. In addition, under setting [3], the “100 nL (luminescence)” value was 1120. The “200 nL (luminescence)” value under setting [4] worked out at 1276.

On to `CC(C)c1cc2c(c(O)c1O)[C@@]1(C(=O)O)CCCC(C)(C)[C@@H]1CC2` [CARNOSICACID], for which the activation at 16 µM is 372% and the activation at 32 µM was determined as 182%. Also, the “100 nL (luminescence)” value under setting [1] was found to be 3620. For the same compound, the “200 nL (luminescence)” value under setting [2] is reported as 4604.

For the compound 1(2)alpha-EPDXYDEOXYDIHYDROGEDUNIN, the “Activation 100 nL” value is on record as 29% and the “Activation 200 nL” value came out at 25%. Besides, under setting [1], the “100 nL (luminescence)” value is on record as 752. Also, the “200 nL (luminescence)” value under setting [2] was 1028.

Turning to `COC(=O)Nc1nc2cc(C(=O)c3cccs3)ccc2[nH]1` [NOCODAZOLE, reference compound], the activation at 16 µM came to 28% and the activation at 32 µM amounted to 48%. Further, the “100 nL (luminescence)” value under setting [3] was determined as 940. The “200 nL (luminescence)” value under setting [4] was 980.

Turning to `Nc1ncnc2c1ncn2[C@H]1C[C@H](O)[C@@H](CO)O1` [DEOXYADENOSINE], the “100 nL (luminescence)” value is reported as 788, the “200 nL (luminescence)” value is recorded as 390, the activation at 16 µM amounted to 32% and the activation at 32 µM is -3%.

Take `CC(=O)OC[C@H]1O[C@@H]([S-])[C@H](OC(C)=O)[C@@H](OC(C)=O)[C@@H]1OC(C)=O.CCP(CC)CC.[Au+]` [auranofin, reference compound]: the “Neh2-luc reporter activation” value was 200%.

For the compound `O=C1c2ccccc2C(=O)c2c(O)c(O)cc(O)c21` [PURPURIN], the activation at 16 µM turned out to be 54% and the activation at 32 µM came to 41%. Moreover, the “100 nL (luminescence)” value under setting [1] turned out to be 1176. Besides, under setting [2], the “200 nL (luminescence)” value came to 952.

For the compound `CC(=O)O[C@@H]1CC2C(C)(C)[C@H](O)CC[C@]2(C)C2CC[C@@]3(C)[C@H](c4ccoc4)OC(=O)C4OC43[C@@]21C` (stereo partly drawn) [alpha-DIHYDROGEDUNOL], the “Activation 100 nL” value turned out to be 41%, the “Activation 200 nL” value was 29% and the “Neh2-luc reporter activation” value is on record as 40%. The “100 nL (luminescence)” value under setting [1] was determined as 720. Also, the “200 nL (luminescence)” value under setting [2] is on record as 1008.

For `O=C(O)C(S)C(S)C(=O)O` (centres unmarked) [2,3-DIMERCAPTOSUCCINICACID, reference compound], the “100 nL (luminescence)” value is on record as 4452, the “200 nL (luminescence)” value was 2760, the activation at 16 µM came to 238% and the activation at 32 µM is 123%.

Take `CO/N=C(\C(=O)N[C@@H]1C(=O)N2C(C(=O)O)=C(COC(C)=O)CS[C@H]12)c1csc(N)n1` [CEFOTAXIMESODIUM, reference compound]: the activation at 16 µM was 50% and the activation at 32 µM was 7%. The “100 nL (luminescence)” value under setting [1] was determined as 968. The “200 nL (luminescence)” value under setting [2] was found to be 488.

Take `COc1cc(O)c2c(=O)cc(C)oc2c1CC=C(C)C` [HETEROPEUCENIN, METHYLETHER]: the “Activation 100 nL” value is listed as 27% and the “Activation 200 nL” value is listed as 45%. In addition, the “100 nL (luminescence)” value under setting [1] is on record as 772. In addition, the “200 nL (luminescence)” value under setting [2] was 1020.

Regarding `CC1(C)C(C(Cl)Cl)C2(Cl)C(Cl)C(Cl)C1(Cl)C2(Cl)Cl` (centres unmarked) [TOXAPHENE], the activation at 16 µM came to 395% and the activation at 32 µM was determined as 226%. For the same compound, the “100 nL (luminescence)” value under setting [1] worked out at 5648. Under setting [2], the “200 nL (luminescence)” value is 5632.

For the compound `C=C1C2=CC(=O)O[C@@H](c3ccoc3)[C@]2(C)CC[C@@H]1[C@@]1(C)C=CC(=O)C(C)(C)[C@@H]1CC(=O)OC` [DEOXYANDIROBIN], the activation at 16 µM turned out to be 95% and the activation at 32 µM worked out at 106%. Besides, under setting [1], the “100 nL (luminescence)” value is 1816. Moreover, the “200 nL (luminescence)” value under setting [2] came out at 1944.

In the case of `C=C(C)[C@H]1Cc2c(ccc3c2O[C@@H]2COc4cc(OC)c(OC)cc4[C@@H]2C3=O)O1` [ROTENONE], the activation at 16 µM came out at 31% and the activation at 32 µM was determined as 30%. The “100 nL (luminescence)” value under setting [1] is 776. Moreover, the “200 nL (luminescence)” value under setting [2] was 1136.

Take `CC(=O)Nc1ccc(O)cc1` [ACETAMINOPHEN, reference compound]: the “100 nL (luminescence)” value is recorded as 996, the “200 nL (luminescence)” value is recorded as 1012, the “Neh2-luc reporter activation” value was “more than 50%” and the activation at 16 µM came to 53%. Moreover, the activation at 32 µM turned out to be 32%.

On to `O=C(NC(=O)c1c(F)cccc1F)Nc1cc(Cl)c(OC(F)(F)C(F)C(F)(F)F)cc1Cl` (centres unmarked) [LUFENURON], for which the “100 nL (luminescence)” value worked out at 644, the “200 nL (luminescence)” value was found to be 1022, the activation at 16 µM is 32% and the activation at 32 µM amounted to 29%.

For `O=c1cc(-c2ccc(O)c(O)c2)oc2cc(O)cc(O)c12` [Luteolin, 5,7,3′,4′-tetrahydroxyflavone], the “hit strength in the screen (words)” value is “much lesser active than fisetin and quercetin”. Moreover, for the setting “listed as luteolin”, the “hit strength in the screen (words)” value was “very poor Nrf2 activator”.

Consider `C[C@]12CCC(=O)C=C1CCc1ccc(O)cc12` [12-HYDROXY-4,4-BISNOR-4,8,11,13-PODOCARPATETRAEN-3-ONE], for which the “Activation 100 nL” value came to 26% and the “Activation 200 nL” value stood at 18%. In addition, the “100 nL (luminescence)” value under setting [1] is 592. Further, the “200 nL (luminescence)” value under setting [2] was 768.

Turning to `CC(=O)OC1CCC23CC1(C)CCC2C(C)(C)CC3OC(C)=O` (centres unmarked) [CLOVANEDIOLDIACETATE], the activation at 16 µM turned out to be 27% and the activation at 32 µM was determined as 40%. Besides, the “100 nL (luminescence)” value under setting [1] came out at 728. Moreover, the “200 nL (luminescence)” value under setting [2] is 1356.

As for `COc1cc([C@@H]2c3cc4c(c(O)c3C[C@H]3COC(=O)[C@@H]32)OCO4)cc(OC)c1OC` [beta-PELTATIN], the activation at 16 µM was found to be 62% and the activation at 32 µM came out at 21%. In addition, the “100 nL (luminescence)” value under setting [3] was 910. Further, under setting [4], the “200 nL (luminescence)” value came out at 836.
